Data: patent publication US20160263130A1, “PHARMACEUTICAL COMPOSITION FOR PREVENTING OR TREATING LIVER DISEASES, CONTAINING PLASMALOGEN PRECURSOR, PLASMALOGEN OR PLASMALOGEN ANALOG AS EFFECTIVE COMPONENT” (UNIVERSITY OF ULSAN FOUNDATION FOR INDUSTRY COOPERATION, priority 2013, published 2016)

What was measured:
Assay type in all cases: in vivo, C57/BL6 male mice
[1] = test system: mice treated with methionine-choline deficient diet (MCDD); experiment: Plasma ALT measurement in MCD diet steatohepatitis mice; settings: MCD diet together with 100 mg/kg/day, 6 weeks, vs MCDD group, FIG. 1
Experimental: (§1) A methionine-choline deficient (MCD) feed to induce steatohepatitis was purchased from Dyets (Bethlehem, Pa., USA). Alkoxy glycerol (batyl alcohol), as a plasmalogen precursor, was purchased from Sigma (St Louis, Mo., USA).
(§2) 2% BSA was prepared in a DMEM:F12 medium, and plasmalogen precursor alkoxy glycerol dissolved in ethanol was added thereto After incubation at 70° C. for 20 minutes, the mixture was inoculated in a manner of observing crystal disappearance. 7-week-old C57/BL6 male mice were brought in to an experimental animal room, stabilized for 7 days, and then separated into a general feed group, as a control group, an MCD diet group (an MCDD group), and a group taken a mixture of MCD diet and 100 mg/kg/day of plasmalogen precursor alkoxy glycerol (an AG group), where each of the groups had six mice. The test feeds were taken for the total of 6 weeks, and the mice were allowed to only take water for the following 12 hours. Then, blood samples were obtained from the mice, and liver tissues were harvested from each of the mice. […]
Blood samples were obtained from venae cavae of the experimental animals, the plasma was separated from the blood samples by using a centrifuge (at 300 rpm for 15 minutes), and alanine aminotransferase (ALT) of the plasma was measured by using a kit of Labs Biotechnology (London, Canada). […]

[2] = test system: mice treated with methionine-choline deficient diet (MCDD); experiment: Neutral fats (triglyceride) in liver tissue of MCD diet mice; settings: MCD diet together with 100 mg/kg/day, 6 weeks, FIG. 2
Experimental: as §1, §2
Neutral fats in the liver tissue was measured by using a triglyceride (GPO-Trinder) kit purchased from Sigma. […] Then, a triglyceride reagent A was added thereto, allowed to react at room temperature for 5 minutes, and the measurement was performed by using an Emax precision micro plate reader (Molecular Devices, Sunnyvale, Calif.) at 540 nm.

[3] = test system: tumor necrosis factor (TNF-α) and monocyte chemotactic protein-1 (MCP-1) gene expression; experiment: Inflammatory cytokine gene expression in liver tissue by real-time PCR, MCD diet mice; settings: MCD diet with 100 mg/kg/day, 6 weeks, FIG. 3
Experimental: as §1
(§3) 2% BSA was prepared in a DMEM:F12 medium, and plasmalogen precursor alkoxy glycerol dissolved in ethanol was added thereto After incubation at 70° C. for 20 minutes, the mixture was inoculated in a manner of observing crystal disappearance. 7-week-old C57/BL6 male mice were brought in to an experimental animal room, stabilized for 7 days, and then separated into a general feed group, as a control group, an MCD diet group (an MCDD group), and a group taken a mixture of MCD diet and 100 mg/kg/day of plasmalogen precursor alkoxy glycerol (an AG group), where each of the groups had six mice. The test feeds were taken for the total of 6 weeks, and the mice were allowed to only take water for the following 12 hours. Then, blood samples were obtained from the mice, and liver tissues were harvested from each of the mice. The harvested liver tissues were instantly rapid-frozen in dry ice and stored with plasma in a freezer at −70° C.
In order to confirm change in an inflammation degree of liver tissues, gene expression of a tumor necrosis factor (TNF-α) and monocyte chemotactic protein-1 (MCP-1), which are typical inflammatory cytokines, were confirmed by real-time PCR.

[4] = test system: mice treated with methionine-choline deficient diet (MCDD); experiment: Liver histological observation (H&E, trichrome C), MCD diet mice; settings: FIG. 4
Experimental: as §1
as §3, with “−70° C. […]” for “−70° C.”
The segment was died with hematoxylin-eosin (H&E) and trichrome C, and examined and analyzed by using an optical microscope.

[5] = test system: mice that were allowed to take high fat diet (HFD); experiment: High fat diet (HFD) hepatic steatosis animal model; settings: HFD mixed with 200 mg/kg/day (AG-200), 12 weeks, FIG. 6
From the text: Although a MCDD animal model is a model that represents nonalcoholic steatohepatitis occurrence, the MCDD animal model cannot represent a risk factor that accompanies metabolic syndrome. In order to overcome such limitation, liver tissues of mice that were allowed to take high fat diet (HFD) as a general animal model with respect to hepatic steatosis were used for the comparison.
The animal model only had simple hepatic steatosis without inflammation unlike the MCDD group.
Alkoxy glycerol, as a plasmalogen precursor, was added to the HFD feed that induces obesity and non-alcoholic hepatic steatosis, and the feed was administrated to the animal model, and the change was confirmed.
First, the control group (CON) was prepared by allowing 7-week-old C57/BL6 male mice to take a general feed including 7% of fat, 18% of protein, and 75% of carbohydrate, and the HFD group was prepared by allowing 7-week-old C57/BL6 male mice to freely take a HFD feed including 60% of fat, 18% of protein, and 22% of carbohydrate.
Also, the AG group (AG-200) was allowed to take the HFD mixed with 200 mg/kg/day of alkoxy glycerol. The experimental groups were allowed to take the corresponding feeds for the total of 12 weeks, and liver histological changes in the livers were confirmed in the same manner in Example 4, and the plasma ALT levels were confirmed in the same manner as in Example 1.

Which “change in plasma ALT” value [1] does the source give for `CCCCCCCCCCCCCCCCCCOCC(O)CO` (centres unmarked) [alkoxy glycerol, batyl alcohol] here?
Its value is “significantly improvement”.

What about the “change in amount of neutral fats of liver tissues” value [2] of the same compound?
The value was “significantly improvement”.

And the “expression of inflammatory cytokine genes (TNF-α, MCP-1) in liver tissue” value [3]?
The value was “suppressed expression of inflammatory cytokine genes”.

And the “steatohepatitis, H&E and trichrome C histology” value ([4]; MCD diet with 100 mg/kg/day, 6 weeks)?
Its value is “relieved to the similar level with that of the control group”.

And the liver fibrosis ([4]; MCDD together with alkoxy glycerol)?
The liver fibrosis was “significant improvement”.

And the “hepatic steatosis occurrence (liver histology)” value [5]?
The value was “significant improvement”.

What about the “lipid content in the liver tissues” value [5] of the same compound?
Its value is “significant improvement”.

And the “plasma ALT level” value [5]?
Its value is “remarkable reduction”.
